A word on the DC50: it is the midpoint of the concentration-degradation curve. As a reminder, the Dmax is the greatest extent of degradation seen. The term pEC50 denotes −log10 of the EC50, conventionally taken in molar units.

One assay concerns the target GSPT1 (Homo sapiens (Human), UniProt P15170+Q96SW2). The assay can be described thus: Western Assay for GSPT1 Degradation. It counts as cell-based. The following applies: wild-type Jurkat cells, 24 hrs. On the procedure: Biological Example 4 Western Assay for IRAK4, IRAK1 and GSPT1 Degradation
DMSO was stamped into wells A12-H12 at 500 nL/well (NC, Negative Control, maximum signal). […] Following incubation, plates were centrifuged for 5 min at 1600 rpm. Media was removed and cell pellets were lysed in 50 μL lysis buffer (RIPA buffer (Fisher, PI89901), cOmplete Mini EDTA-free protease inhibitor (Sigma 11836170001), Protease Inhibitor Cocktail (Sigma, P2714), Phosphatase Inhibitor Cocktail 2 and 3 (Sigma, P5726 and P0044), Benzonase (Sigma, E1014)). Cells were lysed overnight at −20° C. Plates were centrifuged for 5 min at 1600 rpm and lysate supernatants were transferred to storage plates. Protein levels were determined by BCA Assay performed according to manufacturer's protocol (EMD Millipore, cat. no. 71285-3). Samples were combined with (4×) LDS Sample Buffer and (10×) Reducing Agent and H2O to equally load 10 ug protein per lane of a 26-well NuPAGE 4-12% Bis-Tris protein gel (1.0 mm, Thermo cat. no. NP0326). Samples were separated by running gels at constant 200 V in NuPAGE MES SDS Running Buffer. Following electrophoresis, proteins were transferred to nitrocellulose membranes using an iBlot Gel Transfer Device and iBlot Gel Transfer Stacks (Thermo cat. no. IB21001 and IB301001) and transfer method PO (20V 1 min, 23V 4 min, 25V 2 min). Membranes were blocked for 1 hr in 5% milk solution (TBS (0.2% Tween-20)).
Following blocking, membranes were incubated with primary antibody overnight at 4° C. with gentle shaking. The primary antibodies and dilutions used were as follows: IRAK4—abcam ab3200612, 1:500; IRAK1—Cell Signaling Technologies D51G7 #4504, 1:500; GSPT1—Cell Signaling Technologies #14980, 1:500). Blots were washed 3× in TBS (0.2% Tween-20), 5-10 min per wash. Following washes, blots were incubated in secondary HRP-conjugated antibody (Promega anti-Rabbit IgG (H+L) HRP, cat. no. W4011), 1:5000 in 5% milk solution (TBS (0.2% Tween-20)), for 1 hr at room temperature with gentle shaking. Blots were washed 3× in TBS (0.2% Tween-20), 5-10 min per wash. Blots were incubated with 1:1 mix of ECL reagents 1 & 2 (Amersham ECL Western Blotting Detection Reagent, cat. no. RPN2106) for 2-3 min at room temperature. Bands were visualized using a Protein Simple imager. Blots were then re-probed with a combination of anti-actin antibody (Sigma Monoclonal Mouse Anti-3-Actin (clone AC-15), cat. no. A5441) and secondary HRP-conjugated antibody (Promega anti-Mouse IgG (H+L) HRP, cat. no. W4021) and similar steps were taken for incubation, wash, detection and visualization steps as above. The data was analyzed using Alpha View software. The densitometric reading for each sample band was normalized to that of the corresponding actin band per lane.

Assay [1] has as its target T1, IRAK4 (Homo sapiens (Human), UniProt Q9NWZ3). The assay can be described thus: IRAK4 Degradation Competition/Rescue Assay. It counts as cell-based. The following applies: degrader 1 μM; 1 hr pre-treatment with Nedd8i (5 μM) or MG-132 (20 or 50 μM); HiBiT Jurkat clone 8D5. The text has this: IRAK4 Degradation Competition/Rescue Assay
A general note: HiBiT is a short tag that completes a luciferase, so light tracks the accessible tagged protein.

Assay [2] has as its target T1, IRAK4. The assay can be described thus: IRAK4 Degradation HTRF Assay. The class given is cell-based. The following applies: wild-type Jurkat cells, 4 hrs. On the procedure:
DMSO was stamped into wells A12-H12 at 400 nL/well (NC, Negative Control, maximum signal). […] Following incubation, plates were centrifuged for 5 min at 1600 rpm. […] Cells were incubated 30 min at room temperature with gentle shaking. 16 μL each lysate was transferred to 96-well detection plate included in Cisbio Total IRAK4 HTRF Assay Kit (cat. no. 63ADK108PEG). To the lysates was added 2 μL each of Total-IRAK4 d2 antibody and Total-IRAK4 Cryptate antibody (Cisbio Total IRAK4 HTRF Assay Kit). Plates were incubated overnight at RT. Fluorescence emission at 665 nm and 620 nm was read using an EnVision plate reader. The HTRF Ratio was calculated per sample using the following equation: HTRF Ratio=(665 nm signal/620 nm signal)×10,000
Background: Time-resolved FRET reads energy transfer from a long-lived donor to a nearby acceptor.

The test system of a further assay is Jurkat cells. The assay can be described thus: Viability Assay (Celltiter-Glo). It counts as cell-based. The following applies: Homo sapiens, 4 hrs, read-out: Viability assessment EC50. The procedure:
Viability Assay (Celltiter-Glo)
DMSO was stamped into empty wells at 60 nL/well (NC, Negative Control, maximum signal). […] Following incubation, the CellTiter-Glo assay was performed according to manufacturer's instructions (Promega CellTiter-Glo Luminescent Cell Viability Assay, cat. no. G7570).
(In ATP-based viability assays light output follows the ATP content of the culture.)

In assay [3] the target is T1, IRAK4. The assay can be described thus: Western Assay for IRAK4 Degradation. The following applies: wild-type Jurkat cells, 4 hrs; approximate. It counts as cell-based. On the procedure: DMSO was stamped into wells A12-H12 at 500 nL/well (NC, Negative Control, maximum signal). […] Following incubation, plates were centrifuged for 5 min at 1600 rpm. […] Cells were lysed overnight at −20° C. Plates were centrifuged for 5 min at 1600 rpm and lysate supernatants were transferred to storage plates. […] Samples were separated by running gels at constant 200 V in NuPAGE MES SDS Running Buffer. Following electrophoresis, proteins were transferred to nitrocellulose membranes using an iBlot Gel Transfer Device and iBlot Gel Transfer Stacks (Thermo cat. no. IB21001 and IB301001) and transfer method PO (20V 1 min, 23V 4 min, 25V 2 min). Membranes were blocked for 1 hr in 5% milk solution (TBS (0.2% Tween-20)).
Following blocking, membranes were incubated with primary antibody overnight at 4° C. with gentle shaking. […] Blots were washed 3× in TBS (0.2% Tween-20), 5-10 min per wash. Following washes, blots were incubated in secondary HRP-conjugated antibody (Promega anti-Rabbit IgG (H+L) HRP, cat. no. W4011), 1:5000 in 5% milk solution (TBS (0.2% Tween-20)), for 1 hr at room temperature with gentle shaking. Blots were washed 3× in TBS (0.2% Tween-20), 5-10 min per wash. Blots were incubated with 1:1 mix of ECL reagents 1 & 2 (Amersham ECL Western Blotting Detection Reagent, cat. no. RPN2106) for 2-3 min at room temperature. Bands were visualized using a Protein Simple imager. […] The data was analyzed using Alpha View software. The densitometric reading for each sample band was normalized to that of the corresponding actin band per lane.

For assay [4], the target named is T1, IRAK4. The assay can be described thus: IRAK4 Degradation HiBiT Assay. The following applies: for Dmax: Jurkat.

pEC50: −log10 of the molar value. A value given as a limit tells only on which side of the number the result lay.

T1 sequence (Q9NWZ3 whole entry): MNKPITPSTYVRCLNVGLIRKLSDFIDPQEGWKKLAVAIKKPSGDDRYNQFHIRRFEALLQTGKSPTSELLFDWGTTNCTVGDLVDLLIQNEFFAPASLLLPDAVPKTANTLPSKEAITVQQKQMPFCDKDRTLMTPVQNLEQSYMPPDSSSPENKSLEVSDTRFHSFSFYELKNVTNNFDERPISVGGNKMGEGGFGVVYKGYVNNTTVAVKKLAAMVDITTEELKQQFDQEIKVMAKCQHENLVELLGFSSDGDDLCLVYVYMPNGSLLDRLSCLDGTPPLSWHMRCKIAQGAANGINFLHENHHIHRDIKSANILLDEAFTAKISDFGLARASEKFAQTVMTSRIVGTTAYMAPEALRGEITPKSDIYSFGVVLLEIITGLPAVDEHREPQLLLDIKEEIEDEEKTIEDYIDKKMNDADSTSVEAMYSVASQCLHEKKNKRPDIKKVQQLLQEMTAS
GSPT1, sequence (P15170 whole entry): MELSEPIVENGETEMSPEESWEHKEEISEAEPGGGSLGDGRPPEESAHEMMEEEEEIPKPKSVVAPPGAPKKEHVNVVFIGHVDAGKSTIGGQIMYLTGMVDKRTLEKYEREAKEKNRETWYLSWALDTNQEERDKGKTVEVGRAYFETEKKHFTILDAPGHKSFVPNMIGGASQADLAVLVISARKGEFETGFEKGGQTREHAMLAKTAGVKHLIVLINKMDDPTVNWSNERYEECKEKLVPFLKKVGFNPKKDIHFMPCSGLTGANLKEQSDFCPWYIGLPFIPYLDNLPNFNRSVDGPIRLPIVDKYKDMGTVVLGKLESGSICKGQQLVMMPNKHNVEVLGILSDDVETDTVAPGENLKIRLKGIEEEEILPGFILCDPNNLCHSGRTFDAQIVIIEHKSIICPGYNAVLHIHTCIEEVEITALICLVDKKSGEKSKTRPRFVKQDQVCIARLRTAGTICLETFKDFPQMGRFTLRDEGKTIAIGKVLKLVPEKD
GSPT1, sequence (Q96SW2 whole entry): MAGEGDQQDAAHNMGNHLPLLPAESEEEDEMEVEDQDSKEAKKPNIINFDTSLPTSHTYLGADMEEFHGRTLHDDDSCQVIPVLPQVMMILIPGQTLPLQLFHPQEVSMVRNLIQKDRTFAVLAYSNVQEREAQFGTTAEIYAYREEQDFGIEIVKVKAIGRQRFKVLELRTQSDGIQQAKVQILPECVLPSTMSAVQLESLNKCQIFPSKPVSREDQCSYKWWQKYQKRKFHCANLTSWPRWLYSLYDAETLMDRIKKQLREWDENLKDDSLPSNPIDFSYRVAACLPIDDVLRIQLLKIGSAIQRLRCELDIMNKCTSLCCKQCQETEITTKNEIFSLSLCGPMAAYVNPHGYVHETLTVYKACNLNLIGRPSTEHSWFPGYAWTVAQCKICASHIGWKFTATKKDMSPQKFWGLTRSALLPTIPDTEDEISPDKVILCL
GSPT1, sequence (Q16531 whole entry partner): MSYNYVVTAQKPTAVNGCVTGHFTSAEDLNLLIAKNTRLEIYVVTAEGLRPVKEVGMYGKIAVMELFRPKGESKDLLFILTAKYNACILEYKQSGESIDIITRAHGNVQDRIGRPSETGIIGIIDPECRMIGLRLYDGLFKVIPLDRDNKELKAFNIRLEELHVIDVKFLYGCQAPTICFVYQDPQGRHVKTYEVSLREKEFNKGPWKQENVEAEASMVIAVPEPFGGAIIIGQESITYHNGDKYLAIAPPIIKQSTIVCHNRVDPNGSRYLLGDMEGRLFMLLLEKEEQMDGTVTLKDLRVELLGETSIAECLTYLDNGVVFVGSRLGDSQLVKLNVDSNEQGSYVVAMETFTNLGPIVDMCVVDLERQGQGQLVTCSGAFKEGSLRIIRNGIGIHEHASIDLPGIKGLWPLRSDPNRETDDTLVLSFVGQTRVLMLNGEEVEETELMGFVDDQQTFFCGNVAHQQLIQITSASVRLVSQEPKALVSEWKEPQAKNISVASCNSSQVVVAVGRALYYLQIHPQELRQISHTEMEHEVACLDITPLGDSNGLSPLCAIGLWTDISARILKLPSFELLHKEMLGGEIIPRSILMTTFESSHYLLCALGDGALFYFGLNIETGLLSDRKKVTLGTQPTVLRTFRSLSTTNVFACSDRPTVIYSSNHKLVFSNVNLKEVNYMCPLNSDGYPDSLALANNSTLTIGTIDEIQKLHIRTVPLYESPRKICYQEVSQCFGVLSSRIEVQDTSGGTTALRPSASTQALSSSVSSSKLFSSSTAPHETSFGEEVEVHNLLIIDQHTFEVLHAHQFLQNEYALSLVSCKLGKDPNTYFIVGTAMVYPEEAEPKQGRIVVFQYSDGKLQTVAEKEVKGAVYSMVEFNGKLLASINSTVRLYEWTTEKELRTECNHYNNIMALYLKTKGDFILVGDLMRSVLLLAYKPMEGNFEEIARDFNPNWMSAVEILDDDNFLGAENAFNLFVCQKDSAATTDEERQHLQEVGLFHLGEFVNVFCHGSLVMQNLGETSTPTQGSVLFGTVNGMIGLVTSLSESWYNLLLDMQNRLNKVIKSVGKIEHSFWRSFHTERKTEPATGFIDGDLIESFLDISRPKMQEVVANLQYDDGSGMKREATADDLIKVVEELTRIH

Turning to `Cc1ncsc1-c1ccc(CNC(=O)[C@@H]2C[C@@H](O)CN2C(=O)[C@@H](NC(=O)C2(F)CC2)C(C)(C)C)c(OCCOCCC(=O)N2CCN(c3nnc(-c4cnc(-c5ccc6cc(C#N)cnn56)cc4NC(C)C)s3)CC2)c1` [Example 47, (2S,4R)—N-(2-(2-(3-(4-(5-(6-(3-cyanopyrrolo[1,2-b]pyridazin-7-yl)-4-(isopropylamino)pyridin-3-yl)-1,3,4-thiadiazol-2-yl)piperazin-1-yl)-3-oxopropoxy)ethoxy)-4-(4-methylthiazol-5-yl)benzyl)-1-((S)-2-(1-fluorocyclopropane-1-carboxamido)-3,3-dimethylbutanoyl)-4-hydroxypyrrolidine-2-carboxamide], the DC50 on GSPT1 was greater than 10 µM; at IRAK4 [2] it was 140 nM; at IRAK4 [3], 89 nM; on IRAK4 [4] (read-out: Cellular IRAK4 HiBiT: DC50, Table 4, HiBiT-tagged Jurkat cells, 4 hrs) it was 144 nM; at IRAK4 [4] (read-out: Cellular IRAK4 HiBiT: DC50, Table 5, multiple runs, HiBiT-tagged Jurkat cells, 4 hrs), 144 nM; at IRAK4 [4] (read-out: IRAK4 HiBit DC50, C-terminal HiBiT-tagged Jurkat cells, 4 hrs, Tables 2-3) it was 144 nM. In addition, on IRAK4 [1], the “Rescue by proteasome or Nedd8 inhibition” value was “YES”. Moreover, the Dmax on IRAK4 [2] is greater than 100%; at IRAK4 [3] it was 99%; on IRAK4 [4] (read-out: Cellular IRAK4 HiBiT: Dmax, Table 4, HiBiT-tagged Jurkat cells, 4 hrs) it was 118%; at IRAK4 [4] (read-out: Cellular IRAK4 HiBiT: Dmax, Table 5, multiple runs, HiBiT-tagged Jurkat cells, 4 hrs), 118%; on IRAK4 [4] (read-out: IRAK4 HiBit Dmax, C-terminal HiBiT-tagged Jurkat cells, 4 hrs, Tables 2-3), 118%. In addition, the “IRAK4 degradation by HTRF, in words” value at IRAK4 [2] is reported as “maximum IRAK4 degradation among the tested compounds”. In addition, the pEC50 with Jurkat cells was less than 5.00.

Source of the values: patent publication US12528814B2, “Bifunctional degraders of interleukin-1 receptor-associated kinases and therapeutic use thereof” (NURIX THERAPEUTICS, INC., priority 2020, dated 2026).
